Patent publication EP0729956B1, “Benzothiophene compounds, intermediates, compositions, and methods” (ELI LILLY AND COMPANY, priority 1995, dated 1996)
Counter-ions that a name gives are not always drawn. Like-named read-outs stand apart in the source and are kept apart here.

What was measured:
ovariectomized rats [1] = test system: ovariectomized rats; design: species or system Sprague Dawley rats; settings: rat, in vivo; for Uterine EPO (V. max): po
Source text: (§1) Seventy-five day old female Sprague Dawley rats (weight range of 200 to 225g) were obtained from Charles River Laboratories (Portage, MI). The animals were either bilaterally ovariectomized (OVX) or exposed to a Sham surgical procedure at Charles River Laboratories, and then shipped after one week. Upon arrival, they were housed in metal hanging cages in groups of 3 or 4 per cage and had ad libitum access to food (calcium content approximately 0.5%) and water for one week. Room temperature was maintained at 22.2° ± 1.7° C with a minimum relative humidity of 40%. The photoperiod in the room was 12 hours light and 12 hours dark.
(§2) After a one week acclimation period (therefore, two weeks post-OVX) daily dosing with test compound was initiated. 17a-ethynyl estradiol or the test compound were given orally, unless otherwise stated, as a suspension in 1% carboxymethylcellulose or dissolved in 20% cyclodextrin. Animals were dosed daily for 4 days. Following the dosing regimen, animals were weighed and anesthetized with a ketamine: Xylazine (2:1, V:V) mixture and a blood sample was collected by cardiac puncture. The animals were then sacrificed by asphyxiation with CO2, the uterus was removed through a midline incision, and a wet uterine weight was determined.
Uteri were kept at 4° C until time of enzymatic analysis. The uteri were then homogenized in 50 volumes of 50 mM Tris buffer (pH - 8.0) containing 0.005% Triton X-100. Upon addition of 0.01% hydrogen peroxide and 10 mM O-phenylenediamine (final concentrations) in Tris buffer, increase in absorbance was monitored for one minute at 450 nm. The presence of eosonophils in the uterus is an indication of estrogenic activity of a compound. The maximal velocity of a 15 second interval was determined over the initial, linear portion of the reaction curve.

[2] = test system: ovariectomized test animals; assay: Osteoporosis Test Procedure (OVX rat, 35-day dosing, distal femur metaphysis X-ray image analysis); format: in vivo, Sprague Dawley rats; settings: OVX rats, daily for 35 days; for Distal Femur Metaphysis (X-ray Image Analysis-Gray Score): mean ± SEM
Source text: as §1
Following the General Preparation Procedure, infra, the rats were treated daily for 35 days (6 rats per treatment group) and sacrificed by carbon dioxide asphyxiation on the 36th day. The 35 day time period was sufficient to allow maximal reduction in bone density, measured as described herein. At the time of sacrifice, the uteri were removed, dissected free of extraneous tissue, and the fluid contents were expelled before determination of wet weight in order to confirm estrogen deficiency associated with complete ovariectomy. […] The uteri were then placed in 10% neutral buffered formalin to allow for subsequent histological analysis.
The right femurs were excised and digitilized x-rays generated and analyzed by an image analysis program (NIH image) at the distal metaphysis. The proximal aspect of the tibiae from these animals were also scanned by quantitative computed tomography.
In accordance with the above procedures, compounds of the present invention and ethynyl estradiol (EE2) in 20% hydroxypropyl b-cyclodextrin were orally administered to test animals. Distal femur metaphysis data presented in Tables 2 and 3 below are the results of formula I compound treatments compared to intact and ovariectomized test animals. Results are reported as the mean ± the standard error of the mean.

ovariectomized rats [3] = assay: Serum cholesterol analysis (OVX rat, 4-day dosing); format: in vivo, Sprague Dawley rats
Source text: as §1, §2
Blood samples were allowed to clot at room temperature for 2 hours, and serum was obtained following centrifugation for 10 minutes at 3000 rpm. Serum cholesterol was determined using a Boehringer Mannheim Diagnostics high performance cholesterol assay. Briefly the cholesterol was oxidized to cholest-4-en-3-one and hydrogen peroxide. The hydrogen peroxide was then reacted with phenol and 4-aminophenazone in the presence of peroxidase to produce a p-quinone imine dye, which was read spectrophotemetrically at 500 nm. Cholesterol concentration was then calculated against a standard curve. The entire assay was automated using a Biomek Automated Workstation.

[4] = Table 3, oral, dose 0.1 mg/kg, OVX control 6.2 ± 1.4, Sham 31.1 ± 6.3
[5] = Rattus norvegicus, po, 96 h, daily for 4 days, read-out: Serum Cholesterol (% decrease vs. OVX)

SMILES	Uterine EPO (V. max) (ovariectomized rats [1]; 0.1 mg/kg)	inhibition in vivo at 0.1 mg/kg (ovariectomized rats [3]; [5]) [%]	Uterine EPO (V. max) (ovariectomized rats [1]; 1 mg/kg)	inhibition in vivo at 1 mg/kg (ovariectomized rats [3]; [5]) [%]	Uterine EPO (V. max) (ovariectomized rats [1]; 0.01 mg/kg)	inhibition in vivo at 0.01 mg/kg (ovariectomized rats [3]; [5]) [%]	further results
C#C[C@]1(O)CC[C@H]2[C@@H]3CCc4cc(O)ccc4[C@H]3CC[C@@]21C [EE2, 17a-ethynyl estradiol, reference compound]	308.1	94.8	–	–	–	–	eosinophil infiltration into the uterus (in words) (ovariectomized rats [1]): substantial, expected increase in eosinophil infiltration; bone loss / femur density after ovariectomy (in words) ([2]; oral): prevented this loss; Distal Femur Metaphysis (X-ray Image Analysis-Gray Score) ([2]; Table 2, oral in 20% hydroxypropyl b-cyclodextrin, dose 0.1 mg/kg, OVX control 8.1 ± 1.8, Sham 27.2 ± 6.0): 11.5 ± 2.9∗; Distal Femur Metaphysis (X-ray Image Analysis-Gray Score) [2, 4]: 17.8 ± 3.5; serum cholesterol compared to the ovariectomized control animals (in words) (ovariectomized rats [3]; oral, 4 days, EE2 at 0.1 mg/kg/day): caused a decrease in serum cholesterol
Oc1ccc(-c2sc3ccccc3c2Oc2ccc(OCCN3CCCCCC3)cc2)cc1 [Example 4, [3-[4-[2-(1-hexamethyleneimino)ethoxy]phenoxy]-2-(4-hydroxypbenyl)]benzo[b]thiophene]	3.9	53.7	4.8	62.1	–	–	Uterine EPO (V. max) (ovariectomized rats [1]; 10 mg/kg): 3.0; inhibition in vivo at 10 mg/kg (ovariectomized rats [3]; [5]): 65.3%
CCN(CC)CCOc1ccc(Oc2c(-c3ccc(O)cc3)sc3ccccc23)cc1 [Example 5, [3-[4-[2-(1-N,N-diethylamino)ethoxy]phenoxy]-2-(4-bydroxyphenyl)]benzo[b]thiophene]	7.2	67.2	54.6	67.7	–	–	Uterine EPO (V. max) (ovariectomized rats [1]; 10 mg/kg): 59.4; inhibition in vivo at 10 mg/kg (ovariectomized rats [3]; [5]): 60.2%
c1ccc(-c2sc3ccccc3c2Oc2ccc(OCCN3CCCCC3)cc2)cc1 [Example 7, [3-[4-[2-(1-piperidinyl)ethoxy]phenoxy]-2-(phenyl)]benzo [b]thiophene hydrochloride]	4.8	56.2	4.5	42.6	–	–	Uterine EPO (V. max) (ovariectomized rats [1]; 5 mg/kg): 4.8; inhibition in vivo at 5 mg/kg (ovariectomized rats [3]; Rattus norvegicus, po, 96 h, daily for 4 days, dose 5.0 mg/kg, read-out: Serum Cholesterol (% decrease vs. OVX)): 29.5%
Oc1ccc(-c2sc3cc(O)ccc3c2Oc2ccc(OCCN3CCCCC3)cc2)cc1 [Example 20, [6-hydroxy-3-[4-[2-(1-piperidinyl)ethoxy]-phenoxy]-2-(4-hydroxyphenyl)]benzo [b]thiophene hydrochloride]	3.0	–	–	–	0.9	–	Uterine EPO (V. max) (ovariectomized rats [1]; 0.05 mg/kg): 3.0; inhibition in vivo at 0.05 mg/kg (ovariectomized rats [3]; Rattus norvegicus, po, 96 h, daily for 4 days, dose 0.05 mg/kg, read-out: Serum Cholesterol (% decrease vs. OVX)): 35.9%
Oc1ccc(-c2sc3cc(O)ccc3c2Oc2ccc(OCCN3CCOCC3)cc2)cc1 [Example 24, [6-Hydroxy-3-[4-[2-(morpholino)ethoxy]phenoxy]-2-(4-hydroxyphenyl)]benzo[b]thiophene hydrochloride]	0.9	46.4	29.4	79.3	3.6	23.7	Distal Femur Metaphysis (X-ray Image Analysis-Gray Score) [2, 4]: 18.3 ± 2.6∗; Distal Femur Metaphysis (X-ray Image Analysis-Gray Score) ([2]; Table 3, oral, dose 1.0 mg/kg, OVX control 6.2 ± 1.4, Sham 31.1 ± 6.3): 19.6 ± 2.3∗; Distal Femur Metaphysis (X-ray Image Analysis-Gray Score) ([2]; Table 3, oral, dose 3.0 mg/kg, OVX control 6.2 ± 1.4, Sham 31.1 ± 6.3): 17.1 ± 5.5
CCN(CC)CCCOc1ccc(Oc2c(-c3ccc(O)cc3)sc3cc(O)ccc23)cc1 [Example 25, [6-Hydroxy-3-[4-[3-(1-N,N-diethylamino)propoxy]phenoxy]-2-(4-hydroxyphenyl)]benzo [b]thiophene hydrochloride]	3.3	67.6	36.0	73.9	3.0	13.1	–
CC(C)N(CCOc1ccc(Oc2c(-c3ccc(O)cc3)sc3cc(O)ccc23)cc1)C(C)C [Example 26, [6-Hydroxy-3-[4-[2-(1-N,N-diisopropylamino)-ethoxy]phenoxy]-2-(4-hydroxyphenyl)]benzo[b]thiophene hydrochloride]	29.1	45.2	175.1	62.7	4.8	29	–
Oc1ccc(-c2sc3cc(O)ccc3c2Oc2ccc(OCCCN3CCCCC3)cc2)cc1 [Example 27, [6-Hydroxy-3-[4-[3-(piperidino)propoxy]phenoxy]-2-(4-hydroxyphenyl)]benzo[b]thiophene hydrochloride]	4.8	50.8	52.5	76.5	3.3	12.2	–
O=C(Oc1ccc(-c2sc3cc(OC(=O)c4ccccc4)ccc3c2Oc2ccc(OCCN3CCCCC3)cc2)cc1)c1ccccc1 [Example 43, [6-Benzoyloxy-3-[4-[2-(1-piperidinyl)-ethoxy]phenoxy]-2-(4-benzoyloxyphenyl)]benzo[b]thiophene hydrochloride]	4.8	43.8	6.0	39.4	3.3	9.2	–
CCS(=O)(=O)Oc1ccc(-c2sc3cc(OS(=O)(=O)CC)ccc3c2Oc2ccc(OCCN3CCCCC3)cc2)cc1 [Example 44, [6-Ethylsulfonyloxy-3-[4-[2-(1-piperidinyl)ethoxy]-phenoxy]-2-(4-ethylsulfonyloxyphenyl)] benzo[b]thiophene hydrochloride]	88.5	43.8	94.5	67.4	3.6	12.6	–
